The record followed here is patent US8946426B2, “Substituted bicyclic heterocyclic compounds as gamma secretase modulators” (Janssen Pharmaceuticals, Inc., priority 2009, dated 2015).

For one data set, the system named is Aβtotal. Put plainly: Method 1: Aβtotal sandwich ELISA in supernatant of SKNBE2 cells carrying APP 695-wild type (Tables 7a, 7b). In kind it is cell-based. The method in brief:
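SKNBE2 cells expressing wild-type APP695 were exposed to compound for 18 Hours in Ultraculture with 1% glutamine. Aβtotal in the supernatant was read by 6E10-capture/biotinylated 4G8 sandwich ELISA with a fluorogenic peroxidase read-out, and WST-1 checked toxicity. IC50 came from a 4-parameter fit of percent inhibition or percent of control versus concentration.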

Data set [1] has as its system Notch-processing activity of the γ-secretase-complex. As to the kind of experiment: Notch cell-free assay (NICD production from recombinant Notch substrate N99). In kind it is biochemical. The following applies: 1 μM test compound; 0.3-0.5 μM mouse Notch substrate; enriched gamma secretase; 37° C., 6 to 22 h; western blot; control GSI concentration not given. How it is done:
The Notch transmembrane domain is cleaved by gamma secretase to release Notch Intracellular C-terminal Domain (NICD).
To monitor the effect of compounds on NICD production, a recombinant Notch substrate (N99) was prepared. The Notch substrate, comprised of mouse Notch fragment (V1711-E1809), an N-terminal methionine and a C-terminal FLAG sequence ([…]), was expressed in E. coli and purified on a column containing an anti-FLAG M2 affinity matrix.
A typical Notch cell-free assay consisted of 0.3-0.5 μM Notch substrate, an enriched preparation of gamma secretase and 1 μM of a test compound (compounds 16, 18 and 106 of the present invention). Controls included a gamma secretase inhibitor (GSI), such as (2S)—N-[2-(3,5-difluorophenyl)acetyl]-L-alanyl-2-phenyl-glycine 1,1-dimethylethyl ester (DAPT) or (2S)-2-hydroxy-3-methyl-N-[(1S)-1-methyl-2-oxo-2-[[(1S)-2,3,4,5-tetrahydro-3-methyl-2-oxo-1H-3-benzazepin-1-yl]amino]ethyl]-butanamide (Semagacestat), and DMSO, the final concentration of DMSO being 1%. Recombinant Notch substrate was pre-treated with 17 μM DTT (1,4-dithiothreitol) and 0.02% SDS (Sodium Dodecyl Sulfate) and heated at 65° C. for 10 min. The mixture of substrate, gamma secretase and compound/DMSO was incubated at 37° C. for 6 to 22 hours (h). Six-hour incubation was sufficient to produce the maximal amount of NICD and the cleaved product remained stable for an additional 16 H. Reaction products were processed for SDS PAGE (Sodium Dodecyl Sulfate-Poly Acrylamide Gel Electrophoresis) and western blotting. Blots were probed with an anti-Flag M2 antibody, followed by LI-COR infrared secondary antibody, and analyzed with the Odyssey Infrared Imaging System (LI-COR® Biosciences).
On the technique in general: In western blotting, separated proteins are transferred to a membrane and probed.

A further data set deals with mouse Notch2. As to the kind of experiment: Notch cell-based assay (N2-CHO/DL-CHO co-culture, Dual-Glo luciferase, NICD production). The settings on record: N2-CHO/DL-CHO co-culture 16 H; five-point curve 3 μM-0.3 nM. An excerpt:
The Notch cell-based assay was based on the interaction of Notch and its ligand in a co-culture system and utilized the Dual-Glo Luciferase Assay System (Promega) to monitor NICD production. Two stable cell lines, N2-CHO and DL-CHO, were established to express full-length mouse Notch2 and Delta respectively. Cells that expressed mouse Notch were also transfected with two plasmids, pTP1-Luc and pCMV-RLuc, to express firefly and Renilla luciferase. Expression of firefly luciferase was under the control of TP1 promoter that responded to NICD activation.
N2-CHO cells were seeded at 1×10^5/well in 24-well plates the day before transfection. On the second day, cells were double transfected with 3 μg/well pTP1-Luc (expressing firefly luciferase) and 0.3 ng/well pCMV-RLuc (expressing Renilla luciferase). After 6 H incubation, transfected N2-CHO cells were washed and DL-CHO cells (2×10^5 cells/well) were added.
Compounds were pre-mixed with DL-CHO cell suspension in a five-point curve. Typically, compound treatment was performed in duplicate with a serial 1:10 dilution (3 μM-0.3 nM) in DMSO. The final concentration of DMSO in a given culture was 1%. Controls included non-transfected cells and transfected cells treated with a GSI or DMSO only. Luciferase assays were performed after 16 H co-culture and compound treatment.
The luciferase assay was carried out according to manufacture's instructions. Briefly, cells were washed with PBS (Phosphate Buffered Saline), lysed with Passive Lysis Buffer (Promega), and incubated at room temperature for 20 min. Lysates were mixed with Dual-Glo Luciferase Reagent and the firefly luciferase activity was measured by reading the luminescence signal in the EnVision 2101 Multilabel reader. Dual-Glo Stop & Glo Reagent was then added to each well and the Renilla luciferase signal was measured.

The mark [2] stands for this setting: Table 7b, averaged IC50, non-linear regression of percentage of control vs log concentration, 4-parameter equation.
The mark [3] stands for this setting: Homo sapiens, SKNBE2, Table 7b, averaged IC50, non-linear regression of percentage of control vs log concentration, 4-parameter equation.
[4] abbreviates: Homo sapiens, Table 7a, SKNBE2 cells, compounds 18 h, XLfit 4-parameter fit of percent inhibition, top/bottom fixed to 100/0, hill slope 1.

The term IC50 denotes the concentration that inhibits the measured activity by half. Higher therefore signals weaker potency in that assay. `COc1cc(Nc2cc(C(F)(F)F)nn3cc(C)nc23)ccc1-c1cnc(C)o1` [Compound 195]: the half-maximal inhibitory concentration (IC50) with Aβtotal (setting [2]) was more than 10 µM.

For orientation: melting point means the temperature, or range, at which the solid turns liquid. Regarding `COc1cc(Nc2cccc3c2nc(-c2ccc(F)cc2)n3C)ccc1-c1cnc(C)o1` [Compound 16], the melting point came out at 189 °C. In addition, in the data set with Aβtotal (setting [3]), the IC50 is more than 3 µM. The concentration for half-maximal inhibition (IC50) in the data set on Aβtotal (setting [4]) was more than 3 µM. Also, in data set [1], the “effect on the Notch-processing activity of the γ-secretase-complex (production of NICD)” value was “did not show an effect”. `Cc1ncoc1-c1ccc(Nc2cccc3c2nc(-c2ccc(F)cc2)n3C)nc1` [Compound 10]: the melting point was found to be 195.4 °C. In the case of `COc1cccc(-c2nc3c(Nc4ccc(-c5cnc(C)o5)nc4)cc(F)cc3n2C)c1` [Compound 105], the concentration for half-maximal inhibition (IC50) with Aβtotal (setting [2]) is more than 3 µM. The molecule `COc1cc(Nc2cncc3c2nc(-c2ccc(F)cc2)n3C)ccc1-c1cnc(C)o1` [Compound 186] yielded a 50% inhibitory concentration (IC50) with Aβtotal (setting [2]) of more than 10 µM. The molecule `Cc1ncc(-c2ccc(Nc3cccc4c3nc(-c3ccc(F)cc3)n4C(C)C)cn2)o1` [Compound 18] yielded a melting point of 133.4 °C. Besides, the IC50 with Aβtotal (setting [3]) was more than 3 µM. Moreover, the “effect on the Notch-processing activity of the γ-secretase-complex (production of NICD)” value in data set [1] is “did not show an effect”. Further, the “average IC50 values from the Notch cell-based assay (luciferase assay readouts)” value with mouse Notch2 was “non-inhibitory”. For the molecule `COc1cc(Nc2cccc3c2nc(-c2ccc(F)cc2)n3C)ccc1-c1ocnc1C` [Compound 12], the IC50 in the data set with Aβtotal (setting [3]) is more than 3 µM; in the data set on Aβtotal (setting [4]), more than 1 µM.

`Cc1ncc(-c2ccc(Nc3nccc4c3nc(-c3ccc(F)cc3)n4C)cc2F)o1` [Compound 17] registered an IC50 with Aβtotal (setting [3]) of more than 3 µM.
